How the values were obtained:
[1] = biological target: T1, Protein cereblon/histone acetyltransferase (Rattus norvegicus, UniProt Q56AP7+Q91XT0); experiment: PROTAC activity at p300/CRBN in rat RG2 cells assessed as induction of p300 degradation; type: cell-based
T1 sequence (Q56AP7 whole entry): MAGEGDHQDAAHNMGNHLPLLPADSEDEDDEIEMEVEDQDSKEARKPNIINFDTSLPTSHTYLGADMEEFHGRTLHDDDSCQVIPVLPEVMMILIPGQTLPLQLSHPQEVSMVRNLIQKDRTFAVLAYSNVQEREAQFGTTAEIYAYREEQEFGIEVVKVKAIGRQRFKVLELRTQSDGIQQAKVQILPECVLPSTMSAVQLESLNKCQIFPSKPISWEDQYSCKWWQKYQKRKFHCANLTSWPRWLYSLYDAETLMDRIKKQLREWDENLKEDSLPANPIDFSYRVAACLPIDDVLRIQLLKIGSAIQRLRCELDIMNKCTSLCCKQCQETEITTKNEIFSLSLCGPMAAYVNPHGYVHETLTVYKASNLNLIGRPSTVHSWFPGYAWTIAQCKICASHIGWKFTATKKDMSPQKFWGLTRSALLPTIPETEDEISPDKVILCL
T1 sequence (Q91XT0 whole entry): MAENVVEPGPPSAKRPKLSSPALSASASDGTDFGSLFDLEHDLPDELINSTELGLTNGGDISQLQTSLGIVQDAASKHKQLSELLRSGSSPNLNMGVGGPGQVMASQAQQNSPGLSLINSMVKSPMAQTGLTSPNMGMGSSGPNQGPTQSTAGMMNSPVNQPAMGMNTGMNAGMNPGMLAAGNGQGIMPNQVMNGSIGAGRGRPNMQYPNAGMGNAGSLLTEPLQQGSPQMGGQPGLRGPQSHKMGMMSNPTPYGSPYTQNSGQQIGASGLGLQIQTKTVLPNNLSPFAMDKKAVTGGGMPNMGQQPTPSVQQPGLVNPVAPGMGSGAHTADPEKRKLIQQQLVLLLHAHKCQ

[2] = Half life in Sprague-Dawley rat at 1 mg/kg, iv measured upto 24 hrs by LC/MS-MS analysis; type: ADME, organism-based; conditions: in vivo
[3] = Drug distribution in SCID mouse liver at 1 mg/kg, po measured at 6 hrs by LC-MS/MS analysis; type: ADME, organism-based; conditions: read-out: Ct
[4] = Drug distribution in Sprague-Dawley rat spleen at 3 mg/kg, po measured at 24 hrs by LC-MS/MS analysis; type: ADME, organism-based; conditions: read-out: Ct
[5] = Drug distribution in SCID mouse plasma at 0.3 mg/kg, po measured at 6 hrs by LC-MS/MS analysis; type: ADME, organism-based
Cytochrome P450 2B6 = biological target: T2, Cytochrome P450 2B6 (Homo sapiens, UniProt P20813); experiment: Inhibition of CYP2B6 (unknown origin) preincubated with compound for 5 mins followed by NADPH addition and measured after 10 mins by LC-MS/MS analysis; type: ADME
T2 sequence (P20813 whole entry): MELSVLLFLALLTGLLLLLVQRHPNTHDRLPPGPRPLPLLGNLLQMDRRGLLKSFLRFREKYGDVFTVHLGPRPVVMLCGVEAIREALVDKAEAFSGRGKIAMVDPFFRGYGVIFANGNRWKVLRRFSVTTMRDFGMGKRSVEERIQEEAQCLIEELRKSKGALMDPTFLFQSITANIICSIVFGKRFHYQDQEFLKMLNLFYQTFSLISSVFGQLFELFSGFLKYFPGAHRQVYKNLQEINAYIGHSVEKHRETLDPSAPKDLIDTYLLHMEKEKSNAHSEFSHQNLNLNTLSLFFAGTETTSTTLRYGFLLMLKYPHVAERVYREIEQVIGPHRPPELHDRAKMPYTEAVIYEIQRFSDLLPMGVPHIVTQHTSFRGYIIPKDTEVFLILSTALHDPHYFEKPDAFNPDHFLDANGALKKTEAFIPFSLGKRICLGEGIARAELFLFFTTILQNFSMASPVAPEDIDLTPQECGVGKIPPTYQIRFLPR

[6] = Drug distribution in SCID mouse liver at 0.3 mg/kg, po measured at 1 hr by LC-MS/MS analysis; type: ADME, organism-based; conditions: read-out: Ct
[7] = biological target: Protein cereblon/Histone lysine acetyltransferase CREBBP (Rattus norvegicus, UniProt Q56AP7+Q6JHU9); experiment: PROTAC activity at CBP/CRBN in rat RG2 cells assessed as induction of CBP degradation; type: cell-based
Sequence of Protein cereblon/Histone lysine acetyltransferase CREBBP (Q6JHU9 whole entry, one chain of several): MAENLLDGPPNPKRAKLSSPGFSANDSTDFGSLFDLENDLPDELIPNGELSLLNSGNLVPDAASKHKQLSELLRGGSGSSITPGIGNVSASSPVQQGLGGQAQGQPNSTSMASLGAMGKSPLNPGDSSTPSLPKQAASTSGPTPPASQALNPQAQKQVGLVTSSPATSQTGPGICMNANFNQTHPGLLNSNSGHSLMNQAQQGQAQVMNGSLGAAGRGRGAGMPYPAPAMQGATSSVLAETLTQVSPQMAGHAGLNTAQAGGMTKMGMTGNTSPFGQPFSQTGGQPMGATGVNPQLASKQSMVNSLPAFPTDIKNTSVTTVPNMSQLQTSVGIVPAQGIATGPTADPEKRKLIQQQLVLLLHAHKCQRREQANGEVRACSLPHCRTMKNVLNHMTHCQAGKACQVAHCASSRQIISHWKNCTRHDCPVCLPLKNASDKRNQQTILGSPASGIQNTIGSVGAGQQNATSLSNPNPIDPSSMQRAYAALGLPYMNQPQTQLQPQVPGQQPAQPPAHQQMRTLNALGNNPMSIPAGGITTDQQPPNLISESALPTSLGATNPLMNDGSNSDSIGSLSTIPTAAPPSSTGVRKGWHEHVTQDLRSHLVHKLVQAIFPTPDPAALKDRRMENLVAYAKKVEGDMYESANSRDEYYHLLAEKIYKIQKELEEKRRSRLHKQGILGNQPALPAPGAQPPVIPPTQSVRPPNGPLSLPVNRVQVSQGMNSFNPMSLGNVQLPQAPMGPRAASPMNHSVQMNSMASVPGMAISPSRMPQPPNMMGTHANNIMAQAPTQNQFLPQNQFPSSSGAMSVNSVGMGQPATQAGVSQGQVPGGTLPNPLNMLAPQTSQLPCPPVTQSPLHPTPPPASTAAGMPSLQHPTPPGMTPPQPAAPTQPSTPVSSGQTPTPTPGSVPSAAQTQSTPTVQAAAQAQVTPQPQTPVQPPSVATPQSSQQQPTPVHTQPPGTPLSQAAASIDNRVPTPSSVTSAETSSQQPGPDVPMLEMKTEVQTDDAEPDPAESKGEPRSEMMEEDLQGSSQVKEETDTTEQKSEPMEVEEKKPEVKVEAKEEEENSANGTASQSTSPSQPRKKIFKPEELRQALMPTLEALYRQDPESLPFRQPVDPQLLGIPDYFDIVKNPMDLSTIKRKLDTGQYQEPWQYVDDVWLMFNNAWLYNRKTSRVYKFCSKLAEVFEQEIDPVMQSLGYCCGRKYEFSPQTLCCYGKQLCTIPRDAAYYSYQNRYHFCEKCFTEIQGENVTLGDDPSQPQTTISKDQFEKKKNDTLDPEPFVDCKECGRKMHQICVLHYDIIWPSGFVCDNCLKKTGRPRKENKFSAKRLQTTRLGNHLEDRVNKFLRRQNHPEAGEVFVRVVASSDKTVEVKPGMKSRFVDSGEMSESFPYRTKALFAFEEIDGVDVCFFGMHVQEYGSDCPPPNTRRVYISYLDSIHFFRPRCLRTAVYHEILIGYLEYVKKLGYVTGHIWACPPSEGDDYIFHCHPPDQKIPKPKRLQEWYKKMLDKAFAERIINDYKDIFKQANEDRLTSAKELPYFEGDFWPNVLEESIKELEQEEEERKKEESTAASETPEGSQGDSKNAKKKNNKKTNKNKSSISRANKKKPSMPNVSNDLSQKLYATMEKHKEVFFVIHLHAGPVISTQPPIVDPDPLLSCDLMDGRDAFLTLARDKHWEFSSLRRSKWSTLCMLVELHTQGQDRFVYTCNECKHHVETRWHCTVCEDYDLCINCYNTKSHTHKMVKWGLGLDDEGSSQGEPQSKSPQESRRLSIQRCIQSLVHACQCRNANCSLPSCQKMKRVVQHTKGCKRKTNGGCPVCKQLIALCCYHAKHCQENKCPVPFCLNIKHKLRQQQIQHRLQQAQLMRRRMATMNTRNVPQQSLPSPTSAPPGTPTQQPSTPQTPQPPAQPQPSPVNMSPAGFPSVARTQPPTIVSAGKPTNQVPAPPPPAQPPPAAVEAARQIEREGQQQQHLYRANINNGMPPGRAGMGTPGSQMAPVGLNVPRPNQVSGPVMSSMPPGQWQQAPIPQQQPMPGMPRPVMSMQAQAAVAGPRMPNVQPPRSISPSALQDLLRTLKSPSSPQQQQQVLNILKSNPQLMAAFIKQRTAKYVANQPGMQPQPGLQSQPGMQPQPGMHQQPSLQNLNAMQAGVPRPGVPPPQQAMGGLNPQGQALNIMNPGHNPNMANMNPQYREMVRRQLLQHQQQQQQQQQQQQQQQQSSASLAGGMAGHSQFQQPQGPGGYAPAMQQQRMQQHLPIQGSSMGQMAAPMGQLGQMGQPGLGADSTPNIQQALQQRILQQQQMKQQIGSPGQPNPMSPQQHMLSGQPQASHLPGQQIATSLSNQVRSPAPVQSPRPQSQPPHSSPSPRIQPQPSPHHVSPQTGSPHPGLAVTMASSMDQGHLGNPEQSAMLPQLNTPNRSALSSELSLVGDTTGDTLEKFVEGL

[8] = Toxicity in immune-competent Sprague-Dawley rat assessed as change in total bilirubin level at 1 to 10 mg/kg, po administered twice a week for 5 weeks; type: organism-based; conditions: in vivo, 840 h, dose 1-10 mg/kg
[9] = Drug distribution in Sprague-Dawley rat kidney at 10 mg/kg, po measured at 6 hrs by LC-MS/MS analysis; type: ADME, organism-based; conditions: read-out: Ct
[10] = Drug distribution in Sprague-Dawley rat plasma at 3 mg/kg, po measured at 24 hrs by LC-MS/MS analysis; type: ADME, organism-based
[11] = Toxicity in immune-competent Sprague-Dawley rat assessed as change in red blood cells count at 1 to 10 mg/kg, po administered twice a week for 5 weeks; type: organism-based; conditions: in vivo, 840 h, dose 1-10 mg/kg
[12] = Drug distribution in Sprague-Dawley rat liver at 3 mg/kg, po measured at 6 hrs by LC-MS/MS analysis; type: ADME, organism-based; conditions: read-out: Ct
[13] = Drug distribution in SCID mouse spleen at 3 mg/kg, po measured at 1 hr by LC-MS/MS analysis; type: ADME, organism-based; conditions: read-out: Ct
[14] = Drug distribution in SCID mouse tumor at 0.3 mg/kg, po measured at 6 hrs by LC-MS/MS analysis; type: ADME, organism-based, Neoplasm; conditions: read-out: Ct
[15] = Metabolic stability in rat liver microsome assessed as half life measured upto 60 mins in presence of NADPH by LC-MS/MS analysis; type: ADME; conditions: liver microsomes
[16] = Cmax in ICR mouse at 3 mg/kg, po measured upto 24 hrs by LC/MS-MS analysis; type: ADME, organism-based; conditions: in vivo
[17] = Toxicity in immune-competent Sprague-Dawley rat assessed as decrease in glucose level at 10 mg/kg, po administered twice a week for 5 weeks; type: organism-based; conditions: in vivo, 840 h
[18] = Metabolic stability in human plasma assessed as half life measured upto 120 mins by LC-MS/MS analysis; type: ADME, cell-free
LNCaP = experiment: Antiproliferative activity against human LNCaP cells assessed as cell growth inhibition incubated for 4 days by celtiter-glo luminescent assay; conditions: 96 h
[19] = Toxicity in immune-competent Sprague-Dawley rat assessed as change in blood urea nitrogen level at 1 to 10 mg/kg, po administered twice a week for 5 weeks; type: organism-based; conditions: in vivo, 840 h, dose 1-10 mg/kg
[20] = Drug distribution in SCID mouse tumor at 1 mg/kg, po measured at 6 hrs by LC-MS/MS analysis; type: ADME, organism-based, Neoplasm; conditions: read-out: Ct
[21] = Drug distribution in SCID mouse spleen at 0.3 mg/kg, po measured at 1 hr by LC-MS/MS analysis; type: ADME, organism-based; conditions: read-out: Ct
[22] = Half life in ICR mouse at 3 mg/kg, po measured upto 24 hrs by LC/MS-MS analysis; type: ADME, organism-based; conditions: in vivo
[23] = Toxicity in immune-competent Sprague-Dawley rat at 1 to 10 mg/kg, po administered twice a week for 5 weeks; type: organism-based; conditions: in vivo, 840 h, dose 1-10 mg/kg
[24] = Chemical stability of the compound assessed as parent compound remaining measured at 7 hrs; type: physicochemical; conditions: read-out: Stability

## CC(=O)N1CCc2c(c(N3CCCc4cc(-c5cnn(C)c5)c(C(F)F)cc43)nn2[C@H]2CC[C@H](CN3Cc4cc5c(cc4C3)C(=O)N(C3CCC(=O)NC3=O)C5=O)CC2)C1 (stereo partly specified)
[1]
  DC50: 0.3 nM
[2]
  half-life: 1.9 h
[3]
  concentration at 6 h: 0.301 µg/mL
[4]
  concentration at 24 h: 8.1 ng/g
[5]
  concentration at 6 h: 0.0127 µg/mL
Cytochrome P450 2B6
  IC50: > 10000 nM
[6]
  concentration at 1 h: 0.323 µg/mL
[7]
  DC50: 0.1 nM
[8]
  Activity: Non-Toxic
[9]
  concentration at 6 h: 224 ng/g
[10]
  concentration at 24 h: 0.0013 µg/mL
[11]
  Activity: Non-Toxic
[12]
  concentration at 6 h: 148 ng/g
[13]
  concentration at 1 h: 0.937 µg/mL
[14]
  concentration at 6 h: 14.4 ng/g
[15]
  half-life: 1.08 h
[16]
  Cmax: 0.725 µg/mL
[17]
  Activity: Non-Toxic
[18]
  half-life: 1.18 h
LNCaP
  IC50: 10.3 nM
[19]
  Activity: Non-Toxic
[20]
  concentration at 6 h: 64.3 ng/g
[21]
  concentration at 1 h: 0.091 µg/mL
[22]
  half-life: 3.1 h
[23]
  Activity: Non-Toxic
[24]
  remaining at 7 h: < 10%

— ChEMBL document CHEMBL5543112, “Discovery of CBPD-268 as an Exceptionally Potent and Orally Efficacious CBP/p300 PROTAC Degrader Capable of Achieving Tumor Regression” (J Med Chem, 2024)
